Data published in a melting point compilation (Tetko et al.; mined from patent text by program, amines drawn as free bases though some values may be those of a salt).

melting point [°C]	Compound
373 to 375	Cc1cccc2nc(O)n(C3CCC(=O)NC3=O)c(=O)c12 (stereo unspecified)
197 to 200	CN(C)C=Nc1[nH]nc(NCc2ccccc2)c1C#N
241 to 242	Cc1cc2c(cc1C(F)(F)F)NC(=O)CC(c1cccc(-c3ncoc3C)c1)=N2
92 to 94	COC(=O)c1ccc([N+](=O)[O-])cc1S(=O)(=O)O
140 to 142	COc1ccc(OC)c(CC2=C(C)C(=O)C3C=CC=CC3C2=O)c1 (stereo unspecified)
177 to 179	COc1ccc(OC)c2c1C(=O)c1ccc(C)cc1C2OC (stereo unspecified)
74 to 76	CCOC(=O)c1c(C(C)C)c(-c2ccc(F)cc2)cn1CC
120 to 121	COc1cc(C=C(C)[N+](=O)[O-])cc2c1OC(C)(C)C2
102 to 103	COc1cccnc1CSCCN=C(NC#N)SC
118 to 120	CCOC(=O)c1c(C)nc2c(cnn2CC)c1O
270 to 275	O=C(NCc1nc(O)cc(O)n1)c1cccs1
39 to 40	N#CCNC(=O)C(F)(F)F
180	O=C1CN(C(=O)N2CCOCC2)c2ccccc2N1
83 to 84	Cc1cccc2c(C(F)(F)F)c(O)ccc12
219 to 220	CC(=O)c1ccc2c(c1)S(=O)(=O)c1cc(C(C)=O)ccc1O2
160	CC(=O)c1cccc(N2CCN(CCC3CCC(NC(=O)CC#N)CC3)CC2)c1 (stereo unspecified)
91 to 92	CCOC(=O)C1NC(=O)C1OC (stereo unspecified)
55 to 57	N#CCC(=O)c1cc(F)c(F)c(F)c1F
240 to 241	CC(C)(C)C(NC(=O)c1cccc(-c2ccccc2)c1)Nc1c(Nc2cccnc2)c(=O)c1=O (stereo unspecified)
98 to 100	CCOC(=NC(=O)Nc1ccc(OC(F)(F)F)cc1)c1c(F)cccc1F
118 to 122	CC(C)(F)[C@H]1C(=O)N[C@@H]1CC(=O)O (racemic)
185 to 186	COC(=O)COc1ccc(Cl)c2c1c1c(n2Cc2ccccc2)CCCC1C(N)=O (stereo unspecified)
106 to 107	CCCOc1cc(CCC(=O)O)ccc1OCCCc1cn(-c2ccc(C(F)(F)F)cn2)nc1OCC
105 to 107	CCOC(=O)NNC(=O)NCCC(=O)OC

melting point [°C]	Compound
210 to 212	NC(=O)NC(Cc1c[nH]c2ccccc12)C(=O)NCc1cc(C(F)(F)F)cc(C(F)(F)F)c1 (stereo unspecified)
188 to 189	CCCC(=O)NC1=CC(=O)c2ccc(C)nc2C1=O
146 to 148	CCCC(=O)OCc1ccc2oc(=O)c(C(=O)Oc3cncc(Cl)c3)cc2c1
90 to 92	CC(C)(O)COC(=O)N1CCN(C#N)CC1
172 to 175	COc1ccc(C2Nc3ccc(Cl)cc3C(C#CC3CC3)(C(F)(F)F)O2)cc1OC (stereo unspecified)
175 to 177	NS(=O)(=O)c1ncnc2c1ccn2C1CC(O)C(CO)O1 (stereo unspecified)
236 to 238	CC(CN)C1=CC(C)(C(=O)O)CC=C1 (stereo unspecified)
242 to 244	CN1Cc2ccc3c(c2C1)NC(=O)C3=NO
227 to 232	Cn1c(C(F)(F)F)cc(=O)n(-c2ccc3snc(C4SCCS4)c3c2)c1=O
153 to 156	N#CC1C(=O)NC(=O)C(C(=O)OCc2ccccc2)C12CCCCC2 (stereo unspecified)
140 to 141	CC(C)(C)OC(=O)CON1C(=O)c2ccccc2C1=O
125	COC(=O)[C@@H]1C[C@H](C(=O)OC(C)(C)C)N(C(=O)CNC(=O)Nc2ccc(Cl)cc2)[C@@H]1c1ccccc1 (racemic)
137 to 138	CC(C)(Sc1cccc(OCc2ccc(-c3ccc([N+](=O)[O-])cc3)o2)c1)C(=O)O
91 to 94	O=C(O)CCCCCCCn1ccnc1
110 to 111	CC(=O)OC1=C(OC(C)=O)C(=O)c2cc(Cl)ccc2C1=O
78 to 80	COc1ccc(C(=O)OC2C(OC(C)=O)C=C(C)C(=O)CC2(C)C)cc1 (stereo unspecified)
145 to 146	NS(=O)(=O)c1ccccc1OC(F)(F)C(F)(F)F
222 to 225	Cc1nc2c3c(ccn2c1C)C(=O)C(O)C(c1ccsc1)N3 (stereo unspecified)
222 to 224	CCOC(=O)c1cn(C)c2cc(C(F)(F)F)ccc2c1=O
248	CCNc1n[nH]c2ccc(C3C(C#N)=C(C)NC(C)=C3C#N)cc12
150 to 152	O=C1NC(=O)C(Cc2ccc3cc(OCc4ccccc4F)ccc3c2)S1 (stereo unspecified)
134 to 140	COC(=O)c1cc(OC)c(OCc2ccccc2)cc1N=CN(C)C
86 to 88	O=C1c2ccc(Cl)cc2OCN1CCO[N+](=O)[O-]
166 to 168	CC1(C)CC(NC(=O)c2ccc(Cl)c([N+](=O)[O-])c2)CC(C)(C)N1

Second part, the molecule before the results:

Compound	melting point [°C]
CC1(C)Oc2ccc(S(=O)(=O)c3ccc(O)cc3)cc2[C@@H](Oc2ccc(O)nn2)[C@]1(C)O	> 200
CCOC(=O)c1ncn2c1C(C)N=C(c1ccccn1)c1cc(Br)ccc1-2 (stereo unspecified)	193 to 195
Oc1ccc2c(c1)CCC(n1cc[nH]c1=S)C2 (stereo unspecified)	240 to 241
CCc1nc2c(-c3cc4c(c(Br)c3C)OCC4)ncnc2n1C(C1CC1)C1CC1	179 to 180
Cc1cc(-c2nc(-c3c(F)cccc3Cl)nn2C)ccc1-c1ccc(OC(F)(F)F)cc1	117 to 122
Nc1ncccc1-c1nc2ccc(Cl)nc2n1-c1ccc(CNC(=O)c2cccc(F)c2)cc1	240 to 243
Cc1c(NC(=O)c2ccc(OC[C@@H]3CCCO3)cc2)ccc2c1cc(CNCC(C)C)n2C	162
COc1cc(CO)ccc1OCc1nc(N2CCCCC2)sc1C	92 to 93
COc1ccccc1CN=C(Cc1ccccc1)N1CC2C(=O)CCC(c3ccccc3)(c3ccccc3)C2C1 (stereo unspecified)	146
O=C1N(Cc2noc(C(F)(F)F)n2)c2ccccc2C12COc1cc3c(cc12)OCCO3 (stereo unspecified)	159 to 160
Cc1cc2ncccc2[nH]1	193 to 195
Cn1nnc(-c2cccnc2)n1	108 to 110
CN(c1ncccc1[N+](=O)[O-])C1CCNCC1	116 to 117
BrCc1c(Br)csc1Br	89 to 90
COc1ccc(-c2nc3n(c2-c2ccc(OC)cc2)CCS3)cc1	155 to 158
CNC(=NC#N)NCCSCc1csc(NC(=N)N)n1	159 to 161
ClC(=NNc1ccc(Cl)cc1)c1ccccc1	107 to 108
CCOC(=O)c1c(CN(CC)CC)nc2sc(C)c(C)c2c1-c1ccc(Cl)cc1	98 to 100
CCCOc1ccccc1-c1nc2[nH]c(=O)nnc2c(=O)[nH]1	298 to 299
CCOC(=O)c1c(C)cc2cnc(-c3ccccc3C)nc2c1C	56 to 57

Compound	melting point [°C]
Cc1ccc(CSc2nc(C)n(C)c(=O)c2Br)cc1	73 to 74
c1ccc2c(c1)CSCCCN2	77 to 79
Cc1cc(Cl)ccc1NC=NO	171 to 172
CCOCn1c(C(F)(F)F)cc(C#N)c1-c1ccc(Cl)cc1	83 to 84.5
O=c1c2c(Cc3cccc([N+](=O)[O-])c3)n[nH]c2c2cccnc2n1-c1ccccc1	> 320
CNc1nc(C)c(-c2ccnc(Nc3ccc(N4CCNCC4)cc3)n2)s1	253 to 255
COc1cc2c(I)cn(C)c2cc1OC	80 to 90
O=C(C(=O)N(CCO)CCO)c1ccc(OCCOc2ccc3ccccc3c2)cc1	128 to 133
Cc1oc(-c2ccccc2)nc1COc1ccc(COc2cncc(CO)c2)cc1	128 to 130
CCn1cnc(/C=C/c2cn(-c3ccccc3)nc2OCc2ccc(OCc3nc(-c4ccc(CC(=O)O)cc4)oc3C)c(OC)c2)c1	194 to 196
Cc1nnc(SCCCC(=O)NC/C=C\COc2cc(CN3CCCCC3)ccn2)s1	65 to 68
Cc1ncn(-c2ccc(C(=O)N3Cc4cccn4Cc4ccccc43)c(Cl)c2)n1	191 to 193
O=c1[nH]c2sc3cc(Br)c(F)cc3c2[nH]c1=O	> 300
Cn1c2ccc(Cl)cc2c2c3ccccc3c(OCCN3CCOCC3)nc21	140 to 142
CC(=O)c1cccc(Nc2nnc(-c3cccc(Oc4cccc(C(F)(F)F)c4)c3)s2)c1	130 to 133
FC(F)(F)c1ccc(-c2cc(C(F)(F)F)n3ncc(I)c3c2)cc1	130
COc1ccc(C2(C#Cc3cccc(-c4nnc(C)s4)c3)CCC(O)CC2)cc1OC1CCCC1 (stereo unspecified)	129 to 130
c1nc(Nc2ccc3[nH]ccc3c2)c2sc(-c3ccsc3)cc2n1	178 to 189
O=c1[nH]c2cc(-n3cccc3)c([N+](=O)[O-])cc2n(C2CCCCC2)c1=O	197
CN1CCC2(CC1)OCc1ccccc12	76 to 77

Compound	melting point [°C]
N#Cc1ccc(OCC[C@@H](NC(=O)OCc2ccccc2)C(=O)OC(c2ccccc2)c2ccccc2)cc1	125 to 126
Cc1c(Cl)sn(-c2ccc(Cl)cc2)c1=O	104 to 106
COCC(COC)Nc1cc(C)nn2c(-c3ccc(Cl)cc3Cl)c(C)cc12	154 to 155
N#Cc1cc(N)c(Cl)cc1C#N	206 to 209
CCOC(=O)C(=O)c1cn(Cc2ccc(C(C)(C)C)cc2)c2cc(-c3ccc(C(F)(F)F)cc3)ccc12	164 to 165
CCOC(=O)/C=C/c1cnn(Cc2ccccc2)c1-c1ccccc1	62 to 63
Cn1cnc2nc(C#Cc3ccccc3)nn2c1=S	290 to 295
CCOC(=O)c1cnc(-c2ccc(Cl)cc2)nc1-c1ccc(OC)c(OC)c1	115
CCCN(CCC)C1CCC2=C(CC(OC)=CC2)C1 (stereo unspecified)	47 to 51
NNC1=NCCCCN1	133 to 135
O=[N+]([O-])c1cc(F)c(O)c(F)c1	98.4 to 101
Cc1cc(C(=O)NCCO)ncc1C(c1cc(F)ccc1F)S(=O)(=O)c1cc(F)cc(F)c1 (stereo unspecified)	82 to 84
CCCCCCCCCOc1ccc(-c2ccc(Br)cc2)c(F)c1F	46 to 47.5
COC(C)CCC1(O)C2=NCCCN2c2cccc(Cl)c21 (stereo unspecified)	164 to 165
C1=CC(CCC2c3ccccc3-c3ccccc32)c2ccccc21 (stereo unspecified)	79 to 80
Cc1ccc([N+](=O)[O-])cc1Nc1nnn[nH]1	245 to 249
C=CCc1cccc2c(=O)cc(-c3ccccc3F)oc12	78 to 81
COC(=O)CCCc1cc2nc(Cl)ccc2n1S(=O)(=O)c1ccc(N2CCOCC2)cc1	110
